Where two headings read alike, the source gives them in different places.
How the values were obtained:
Aβ total = Aβ total levels in H4 neuroglioma cells stably expressing human APP695 (MSD electrochemiluminescence); format: cell-based; conditions: selectivity ratio vs. Aβtotal
Method: Cells were plated out to near confluency. The compounds to be tested were received as 10 mM stocks in 100% DMSO. A dilution series was initially generated in 100% DMSO and then diluted 200-fold in cell culture media such that the tested concentration range was 30 μM to 0.1 nM and the final DMSO concentration was 0.5%. The diluted compounds were incubated with the cells for 22 hours in an incubator at 37° C. and 5% CO2. Aβ42 levels were measured post-incubation from the supernatant of the cells using an Aβ42 specific electrochemiluminescence assay provided by Meso Scale Discovery (Catalog #L21CA-1). The measurement of Aβ42 levels were performed according to the manufacturer's protocol.
Aβ total levels were likewise determined using a specific electrochemiluminescence assay provided by Meso Scale Discovery (Catalog #L21ZA-1) according to the manufacturer's protocol.

AURKA (Aurora A) = target: T1, AURKA (Aurora A) (Homo sapiens, UniProt O14965); experiment: Z'-LYTE SelectScreen biochemical kinase assay AURKA (Aurora A)
T1 sequence (O14965 1-403): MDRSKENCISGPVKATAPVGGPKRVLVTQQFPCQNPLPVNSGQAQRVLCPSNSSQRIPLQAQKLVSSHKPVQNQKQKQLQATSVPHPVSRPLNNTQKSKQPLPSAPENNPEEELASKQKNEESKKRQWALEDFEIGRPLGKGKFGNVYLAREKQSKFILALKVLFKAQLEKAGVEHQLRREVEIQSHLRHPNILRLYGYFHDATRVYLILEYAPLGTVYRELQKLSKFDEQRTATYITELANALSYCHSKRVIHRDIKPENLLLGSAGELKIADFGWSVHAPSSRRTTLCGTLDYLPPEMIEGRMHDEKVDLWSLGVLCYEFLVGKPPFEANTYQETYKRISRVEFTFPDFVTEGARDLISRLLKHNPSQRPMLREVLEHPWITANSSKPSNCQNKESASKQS
Description: (§1) Thermo Fisher Scientific SelectScreen™ Biochemical Kinase Profiling Service Z′-LYTE™ Screening Protocol and Assay Conditions Assay Theory
(§2) The […] biochemical assay employs a fluorescence-based, coupled-enzyme format and is based on the differential sensitivity of phosphorylated and non-phosphorylated peptides to proteolytic cleavage. The peptide substrate is labeled with two fluorophores—one at each end—that make up a FRET pair. In the primary reaction, the kinase transfers the gamma-phosphate of ATP to a single tyrosine, serine or threonine residue in a synthetic FRET-peptide. In the secondary reaction, a site-specific protease recognizes and cleaves non-phosphorylated FRET-peptides. Phosphorylation of FRET-peptides suppresses cleavage by the Development Reagent. Cleavage disrupts FRET between the donor (i.e., coumarin) and acceptor (i.e., fluorescein) fluorophores on the FRET-peptide, whereas uncleaved, phosphorylated FRET-peptides maintain FRET. A ratiometric method, which calculates the ratio (Emission Ratio=Coumarin emission (445 nm)/Fluorescein emission (520 nm)) of donor emission to acceptor emission after excitation of the donor fluorophore at 400 nm, is used to quantitate reaction progress, as shown in the equation below. A significant benefit of this ratiometric method for quantitating reaction progress is the elimination of well-to-well variations in FRET-peptide concentration and signal intensities. As a result, the assay yields very high Z′-factor values (>0.7) at a low percent phosphorylation. Both cleaved and uncleaved FRET-peptides contribute to the fluorescence signals and therefore to the Emission Ratio. The extent of phosphorylation of the FRET-peptide can be calculated from the Emission Ratio. The Emission Ratio will remain low if the FRET-peptide is phosphorylated (i.e., no kinase inhibition) and will be high if the FRET-peptide is non-phosphorylated (i.e., kinase inhibition).
(§3) The Test Compounds are screened in 1% DMSO (final) in the well. For 10 point titrations, 3-fold serial dilutions are conducted from the starting concentration of the customer's choosing.
(§4) All Peptide/Kinase Mixtures are diluted to a 2× working concentration in the appropriate Kinase Buffer (see section Kinase Specific Assay Conditions for a complete description).
(§5) All ATP Solutions are diluted to a 4× working concentration in Kinase Buffer (50 mM HEPES pH 7.5, 0.01% BRIJ-35, 10 mM MgCl2, 1 mM EGTA). ATP Km apparent is previously determined using a Z″-LYTE assay.
(§6) The Development Reagent is diluted in Development Buffer (see section Kinase-Specific Assay Conditions—Direct and Cascade for a complete description).
(§7) Bar-coded Corning, low volume NBS, black 384-well plate (Corning Cat. #4514) • 1. 100 nL—100× Test Compound in 100% DMSO • 2. 2.4 μL—Kinase buffer • 3. 5 μL—2× Peptide/Kinase Mixture • 4. 2.5 μL—4×ATP Solution • 5. 30—second plate shake • 6. 60—minute Kinase Reaction incubation at room temperature • 7. 5 μL—Development Reagent Solution • 8. 30—second plate shake • 9. 60—minute Development Reaction incubation at room temperature • 10. Read on fluorescence plate reader and analyze the data Z′-LYTE Assay Controls
(§8) SelectScreen Kinase Profiling Service uses XLfit from IDBS. The dose response curve is curve fit to model number 205 (sigmoidal dose-response model).
The 2×AURKA (Aurora A)/Ser/Thr 01 mixture is prepared in 50 mM HEPES pH 7.5, 0.01% BRIJ-35, 10 mM MgCl2, 1 mM EGTA. The final 10 μL Kinase Reaction consists of 0.91-8.56 ng AURKA (Aurora A) and 2 μM Ser/Thr 01 in 50 mM HEPES pH 7.5, 0.01% BRIJ-35, 10 mM MgCl2, 1 mM EGTA. After the 1 hour Kinase Reaction incubation, 5 μL of a 1:4096 dilution of Development Reagent A is added.

FLT4 (VEGFR3) = FLT4 (VEGFR3) (Homo sapiens, UniProt P35916); experiment: Z'-LYTE SelectScreen biochemical kinase assay FLT4 (VEGFR3)
FLT4 (VEGFR3), sequence (P35916 25-1363): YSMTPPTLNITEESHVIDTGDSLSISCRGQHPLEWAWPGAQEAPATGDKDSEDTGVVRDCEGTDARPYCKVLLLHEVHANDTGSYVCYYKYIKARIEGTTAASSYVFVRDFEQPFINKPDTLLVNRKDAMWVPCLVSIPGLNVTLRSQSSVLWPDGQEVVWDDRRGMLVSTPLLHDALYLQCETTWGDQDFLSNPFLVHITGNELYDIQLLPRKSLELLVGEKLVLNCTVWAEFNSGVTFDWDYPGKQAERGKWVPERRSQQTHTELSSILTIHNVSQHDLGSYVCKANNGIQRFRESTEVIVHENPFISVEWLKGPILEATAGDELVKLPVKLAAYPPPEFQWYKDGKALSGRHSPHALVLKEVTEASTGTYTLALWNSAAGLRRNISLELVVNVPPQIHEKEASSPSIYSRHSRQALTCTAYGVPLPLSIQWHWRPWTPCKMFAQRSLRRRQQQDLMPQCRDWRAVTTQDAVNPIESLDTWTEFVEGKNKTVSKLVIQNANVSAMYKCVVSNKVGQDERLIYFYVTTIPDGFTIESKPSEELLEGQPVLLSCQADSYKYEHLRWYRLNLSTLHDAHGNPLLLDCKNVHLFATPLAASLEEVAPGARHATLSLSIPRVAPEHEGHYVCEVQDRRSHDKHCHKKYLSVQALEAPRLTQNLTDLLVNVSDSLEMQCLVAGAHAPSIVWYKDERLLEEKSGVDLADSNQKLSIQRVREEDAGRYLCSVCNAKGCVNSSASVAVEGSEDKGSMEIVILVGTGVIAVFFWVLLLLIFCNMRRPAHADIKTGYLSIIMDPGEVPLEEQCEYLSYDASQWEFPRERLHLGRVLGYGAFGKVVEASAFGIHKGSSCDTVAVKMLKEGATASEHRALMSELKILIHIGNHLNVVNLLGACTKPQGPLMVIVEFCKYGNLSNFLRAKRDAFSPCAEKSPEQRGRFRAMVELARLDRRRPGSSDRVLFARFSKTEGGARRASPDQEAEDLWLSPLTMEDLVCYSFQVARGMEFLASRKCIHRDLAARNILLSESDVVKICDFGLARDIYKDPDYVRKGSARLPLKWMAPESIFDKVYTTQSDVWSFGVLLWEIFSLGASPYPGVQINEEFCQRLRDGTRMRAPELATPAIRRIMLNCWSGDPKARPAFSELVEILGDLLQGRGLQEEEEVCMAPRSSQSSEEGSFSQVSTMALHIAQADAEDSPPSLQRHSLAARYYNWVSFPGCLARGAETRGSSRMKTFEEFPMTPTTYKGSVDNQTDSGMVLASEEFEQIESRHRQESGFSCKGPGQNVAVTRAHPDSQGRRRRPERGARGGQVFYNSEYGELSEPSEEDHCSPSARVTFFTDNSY
Description: as §1, §2, §3, §4, §5, §6, §7, §8
The 2×FLT4 (VEGFR3)/Tyr 04 mixture is prepared in 50 mM HEPES pH 7.5, 0.01% BRIJ-35, 10 mM MgCl2, 4 mM MnCl2, 1 mM EGTA, 2 mM DTT. The final 10 μL Kinase Reaction consists of 2-10.5 ng FLT4 (VEGFR3) and 2 μM Tyr 04 in 50 mM HEPES pH 7.5, 0.01% BRIJ-35, 10 mM MgCl2, 2 mM MnCl2, 1 mM EGTA, 1 mM DTT. After the 1 hour Kinase Reaction incubation, 5 μL of a 1:64 dilution of Development Reagent B is added.

[1] = 10 μmolar compound concentration, ATP at Km app, read-out: AURKA (Aurora A) inhibition
[2] = read-out: % Inhibition mean AURKA (Aurora A)
[3] = 10 μmolar compound concentration, ATP at Km app, read-out: FLT4 (VEGFR3) inhibition
[4] = read-out: % Inhibition mean FLT4 (VEGFR3)

| Structure (SMILES) | inhibition at 10 µM (AURKA (Aurora A); [1]) [%] | inhibition at 10 µM (AURKA (Aurora A); [2]) [%] | inhibition at 10 µM (FLT4 (VEGFR3); [3]) [%] | inhibition at 10 µM (FLT4 (VEGFR3); [4]) [%] | inhibition at 10 µM (AURKA (Aurora A); read-out: % Inhibition mean) [%] | inhibition at 10 µM (FLT4 (VEGFR3); read-out: % Inhibition mean) [%] | Ratio AβTotal IC50/Aβ42 IC50 (Aβ total; Table 4a) | Ratio AβTotal IC50/Aβ42 IC50 (Aβ total; prior art compounds, Table 4b) |
| --- | --- | --- | --- | --- | --- | --- | --- | --- |
| Cc1cc(F)ccc1-c1cccn2nc(Nc3ccc4c(cnn4C)c3)nc12 [Example 9, [8-(4-fluoro-2-methyl-phenyl)-[1,2,4]triazolo[1,5-a]pyridine-2-yl]-(1-methyl-1H-indazol-5-yl)-amine] | 40 to 80 | 57 | > 80 | 86 |  |  | 3 |  |
| CCn1ncc2c1CCC(Nc1nc3c(-c4ccccc4)cccn3n1)C2 (stereo not shown) [Example 57, (1-Ethyl-4,5,6,7-tetrahydro-1H-indazol-5-yl)-(8-phenyl-[1,2,4]triazolo[1,5-a]pyridine-2-yl)-amine] | < 40 | 7 | 40 to 80 | 43 |  |  | 104 |  |
| CCn1ncc2c1CCC(Nc1nc3c(-c4cccnc4)cccn3n1)C2 (stereo not shown) [Example 63, (1-Ethyl-4,5,6,7-tetrahydro-1H-indazol-5-yl)-(8-pyridin-3-yl-[1,2,4]triazolo[1,5-a]pyridine-2-yl)-amine] | < 40 | 29 | < 40 | 32 |  |  | 85 |  |
| CC1(C)NC(=O)c2ccc(Nc3nc4c(-c5cccc(F)c5)cccn4n3)cc21 [Cpd. 302 in WO09155551, reference compound] | > 80 |  | > 80 |  | 98 | 96 |  | 1 |

Now from value to compound, other results behind:

| inhibition at 10 µM (AURKA (Aurora A); [1]) [%] | inhibition at 10 µM (AURKA (Aurora A); [2]) [%] | inhibition at 10 µM (FLT4 (VEGFR3); [3]) [%] | inhibition at 10 µM (FLT4 (VEGFR3); [4]) [%] | inhibition at 10 µM (AURKA (Aurora A); read-out: % Inhibition mean) [%] | inhibition at 10 µM (FLT4 (VEGFR3); read-out: % Inhibition mean) [%] | Structure (SMILES) | Ratio AβTotal IC50/Aβ42 IC50 (Aβ total; Table 4a) | Ratio AβTotal IC50/Aβ42 IC50 (Aβ total; prior art compounds, Table 4b) |
| --- | --- | --- | --- | --- | --- | --- | --- | --- |
| < 40 | -14 | < 40 | 19 |  |  | CCn1nc(Cl)c2c1CCC(Nc1nc3c(-c4ccc(F)cc4C)cccn3n1)C2 (stereo not shown) [Example 48, (3-Chloro-1-ethyl-4,5,6,7-tetrahydro-1H-indazol-5-yl)-[8-(4-fluoro-2-methyl-phenyl)-[1,2,4]triazolo[1,5-a]pyridine-2-yl]-amine] | 22 |  |
| 40 to 80 | 42 | 40 to 80 | 62 |  |  | CCn1ncc2c1CCC(Nc1nc3c(-c4ccc(OC)nc4)cccn3n1)C2 (stereo not shown) [Example 71, (1-Ethyl-4,5,6,7-tetrahydro-1H-indazol-5-yl)-[8-(6-methoxy-pyridin-3-yl)-[1,2,4]triazolo[1,5-a]pyridine-2-yl]-amine] | 332 |  |
| < 40 | 15 | 40 to 80 | 42 |  |  | CCn1ncc2c1CCC(Nc1nc3c(-c4ccc(F)cc4)cccn3n1)C2 (stereo not shown) [Example 55, (1-Ethyl-4,5,6,7-tetrahydro-1H-indazol-5-yl)-[8-(4-fluoro-phenyl)-[1,2,4]triazolo[1,5-a]pyridine-2-yl]-amine] | 120 |  |
| < 40 | 14 | < 40 | 29 |  |  | CCCCn1ncc2c1CCC(Nc1nc3c(-c4ccc(F)cc4C)cccn3n1)C2 (stereo not shown) [Example 46, [8-(4-fluoro-2-methyl-phenyl)-[1,2,4]triazolo[1,5-a]pyridine-2-yl]-(1-butyl-4,5,6,7-tetrahydro-1H-indazol-5-yl)-amine] | 4 |  |
| < 40 | 10 | < 40 | 13 |  |  | CCCCCn1ncc2c1CCC(Nc1nc3c(-c4ccc(F)cc4C)cccn3n1)C2 (stereo not shown) [Example 47, [8-(4-fluoro-2-methyl-phenyl)-[1,2,4]triazolo[1,5-a]pyridine-2-yl]-(1-pentyl-4,5,6,7-tetrahydro-1H-indazol-5-yl)-amine] | 1 |  |
| < 40 | 3 | < 40 | 36 |  |  | CCn1ncc2c1CC[C@@H](Nc1nc3c(-c4ccc(F)cc4C)cccn3n1)C2 [Example R-42, (R)-(1-Ethyl-4,5,6,7-tetrahydro-1H-indazol-5-yl)-[8-(4-fluoro-2-methyl-phenyl)-[1,2,4]triazolo[1,5-a]pyridine-2-yl]-amine] |  |  |
